Experiment [1] deals with C12-GM1 transport to the TGN. Description: Brefeldin effect on C12-GM1 transport. It is filed as cell-based.
The conditions of experiment [2]: Orskov et al., 1993; cited from earlier work.

For `C[C@H]1CCC/C=C/[C@@H]2C[C@H](O)C[C@H]2[C@H](O)/C=C/C(=O)O1` [Brefeldin-1], the “effect on C12-GM1 transport to the TGN” value in experiment [1] was “inhibits C12-GM1 transport to the TGN”.

On to “GLP1(7-36)amide: secreted form of GLP1 in which the carboxylic acid of Arg at position 36 has been amidated”, for which the potency in vivo entry in experiment [2] is listed as “equally potent”. For the molecule “GLP1(7-37): secreted form of GLP1 that contains a C-terminal Gly residue”, the potency in vivo result in experiment [2] is “equally potent”.

The record behind these values is patent US10806793B2, “Mucosal delivery of therapeutic molecules, proteins, or particles coupled to ceramide lipids” (Children's Medical Center Corporation, priority 2008, dated 2020).
